How the values were obtained:
[1] = system: HepG2 tumor implants; assay: HepG2 tumor implants in nude mice, tumor growth; assay type: in vivo, athymic nude mice; settings: compounds in drinking water (15 mg/kg/d), start at tumor size 0.1 cm^3 (FIG. 8)
Protocol: Mice were implanted with HepG2 cells (10^6 cells) through subcutaneous injection. 2 weeks later, once tumor size reaches ˜0.1 cm^3, mice were randomized and the treatment began by adding compounds to the drinking water ([…]). Tested compounds were: Vehicle, 3-(decylamino)-5-phenylcyclohex-2-en-1-one (BC1558), 3-(dibenzylamino)-5-phenylcyclohex-2-en-1-one (BC1634) or 3-((4-phenoxybenzyl)amino)-5-phenylcyclohex-2-en-1-one (BC1653). Tumor volume measurements over time were graphed (n=4-5 mice/group, *P<0.05 versus Vehicle).
As a complementary in vivo model, tumorogenicity was further assessed after implanting HepG2 cells along with 3-(decylamino)-5-phenylcyclohex-2-en-1-one, 3-(dibenzylamino)-5-phenylcyclohex-2-en-1-one, 3-((4-phenoxybenzyl)amino)-5-phenylcyclohex-2-en-1-one treatment in athymic nude mice. Mice were implanted with HepG2 cells through subcutaneous injection. Two weeks later, once tumor size reached 0.1 cm^3, the mice were randomized and the treatment began by adding compounds to the drinking water (15 mg/kg/d).

[2] = system: DSS induced colonic inflammation; assay: DSS induced colitis model; assay type: in vivo, C57BL6 mice; settings: DSS in water
Protocol: FIGS. 12A-12D show DCN1 inhibitors reduce DSS induced colonic inflammation, specifically the following experimental results C57BL6 mice were fed with water ad lib containing 3% dextran sulfate sodium (DSS) for six days. DCN1 inhibitors were administered into drinking water at 10 mg/kg/d, starting at day 1. […] The data represent n=4 mice/group, *P<0.05 versus CON.
Also tested were 3-(decylamino)-5-phenylcyclohex-2-en-1-one (BC1558), 3-(dibenzylamino)-5-phenylcyclohex-2-en-1-one (BC1634) and 3-((4-phenoxybenzyl)amino)-5-phenylcyclohex-2-en-1-one (BC1653) in a mouse colitis model to confirm its anti-inflammatory activity. Briefly, C57BL6 mice were fed with water containing 3.5% […] and colonic length was measured. DSS produced a significant decrease in colon length in mice, consistent with colonic inflammation (FIG. 12A-B). […] Colonic tissue cytokine levels were further analyzed.

CCCCCCCCCCNC1=CC(=O)CC(c2ccccc2)C1 (stereo not drawn) [BC1558, 3-(decylamino)-5-phenylcyclohex-2-en-1-one] was tested, and the “tumor size compared to the vehicle” value [1] was “Significantly reduced tumor size”, the “colon length compared vehicle” value ([2]; compounds in drinking water at 10 mg/kg/d (FIG. 12A-B)) was “significant increase” and the “IL1β and IL6 levels in colonic tissue compared to vehicle” value ([2]; compounds in drinking water at 10 mg/kg/d (FIG. 12C-D)) was “large reduction”.
